Here are results for 3 molecules from patent publication US8153658B2, “Piperidine derivative or salt thereof” (Astellas Pharma, Inc., priority 2006, dated 2012).

Data set [1] in a line: Measurement of rat plasma calcium concentration. It is filed as in vivo. As to conditions: read-out: Rat plasma calcium concentration reducing ratio (%) 2 hours after administration (3 mg/kg). On the procedure: Test 2. Measurement of Rat Plasma Calcium Concentration and Plasma PTH Concentration
The compounds of the present invention were administered to rats, and their influences upon the plasma calcium concentration and the plasma PTH concentration were examined. The test was carried out by single oral administration of the compounds of the present invention and the control compounds to 5 to 6 normal male rats, or male rats with renal failure, respectively As a vehicle group, 0.5% of a methyl cellulose (MC) solution was administered at a dose of 5 ml/kg. As a reference compound, cinacalcet was dissolved in the MC solution and administered at a dose of 3 mg/kg. Each of the compounds of the present invention was dissolved or suspended in the MC solution, and administered at a dose of 1, 3 or 10 mg/kg.
Blood samples were collected from the orbital venous plexus under ether anesthesia before the administration and 2 hours, 4 hours, or 8 hours in some cases, after the administration, and the plasma calcium concentration was measured using Calcium E-Test Wako (manufactured by Wako Pure Chemical Industries), and the plasma PTH concentration was measured using a Rat Intact PTH ELISA Kit (manufactured by Immutopics).

A further data set deals with T1, human CaSR (Homo sapiens, UniProt P41180).
T1 construct: a human CaSR open reading frame (ORF) was contained in the pcDNA3.1/Zeo(+) vector; expressed in transfected cells
T1 sequence (P41180 20-1078): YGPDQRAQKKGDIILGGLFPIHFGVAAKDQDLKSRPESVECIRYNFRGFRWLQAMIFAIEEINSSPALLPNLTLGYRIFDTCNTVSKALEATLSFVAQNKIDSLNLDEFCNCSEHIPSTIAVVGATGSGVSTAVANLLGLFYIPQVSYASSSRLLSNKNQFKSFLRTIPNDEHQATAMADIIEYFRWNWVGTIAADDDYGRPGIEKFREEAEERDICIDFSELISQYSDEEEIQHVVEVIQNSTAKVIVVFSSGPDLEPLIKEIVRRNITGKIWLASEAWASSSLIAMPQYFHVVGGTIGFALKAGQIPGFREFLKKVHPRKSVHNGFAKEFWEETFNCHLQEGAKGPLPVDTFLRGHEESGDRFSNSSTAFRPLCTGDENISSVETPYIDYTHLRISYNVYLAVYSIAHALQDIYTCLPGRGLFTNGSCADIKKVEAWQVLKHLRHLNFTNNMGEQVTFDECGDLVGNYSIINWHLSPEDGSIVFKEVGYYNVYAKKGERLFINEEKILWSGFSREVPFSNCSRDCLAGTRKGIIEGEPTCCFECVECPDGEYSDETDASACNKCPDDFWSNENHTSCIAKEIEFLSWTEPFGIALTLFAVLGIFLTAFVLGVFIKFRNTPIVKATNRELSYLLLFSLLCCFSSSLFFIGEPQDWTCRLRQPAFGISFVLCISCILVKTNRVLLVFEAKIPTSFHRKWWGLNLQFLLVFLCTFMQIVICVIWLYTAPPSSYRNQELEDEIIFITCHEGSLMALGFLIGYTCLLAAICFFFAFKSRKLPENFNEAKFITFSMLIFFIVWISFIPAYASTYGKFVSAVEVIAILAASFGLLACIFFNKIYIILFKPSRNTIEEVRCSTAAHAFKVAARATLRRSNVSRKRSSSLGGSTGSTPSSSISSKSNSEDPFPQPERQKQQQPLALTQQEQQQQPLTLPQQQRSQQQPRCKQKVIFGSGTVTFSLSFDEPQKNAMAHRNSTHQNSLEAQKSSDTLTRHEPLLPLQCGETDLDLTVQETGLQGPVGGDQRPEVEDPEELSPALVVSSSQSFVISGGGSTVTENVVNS
As to the kind of experiment: Human calcium sensing receptor (CaSR) agonism test (Fluo-3 / FLIPR). It is filed as cell-based. As to conditions: HEK 293 cell stably expressing human CaSR; 0.5 mM Ca2+; 2 mM Ca2+ group = 100%; read-out: EC50 (compound concentration showing 50% human CaSR agonistic activity). From the text:
Test 1. Human calcium sensing receptor (CaSR) agonism test
1) Preparation of Human CaSR Expression Vector
A DNA fragment coding for human CaSR was cloned in the standard method.
Illustratively, using 203 to 2387 of NM_000388 as a DNA fragment D4, and 2210 to 3633 as a DNA fragment B2, they were amplified using a human kidney cDNA (manufactured by Invitrogen) as the template and using a DNA polymerase (a registered trade name: Pyrobest, manufactured by Takara Bio), and respectively cloned into a pCR2.1 vector using a pCR2.1-Topo vector (manufactured by Invitrogen). Next, the DNA fragments prepared by digesting the pCR2.1-D4 with SpeI and XbaI were inserted into the same sites of pcDNA3.1/Zeo(+) vector. Successively, the fragments prepared by digesting pCR2.1-B2 with SacI and XbaI were inserted into the SacI and XbaI sites of previously prepared pcDNA3.1/Zeo(+)-D4(SpeI-XbaI), thereby obtaining a human CaSR expression vector pcDNA3.1/Zeo(+)-hCaSR in which a human CaSR open reading frame (ORF) was contained in the pcDNA3.1/Zeo(+) vector.
2) Preparation of Human CaSR Expression Cell
The human CaSR expression vector was transferred into a HEK 293 cell using a transfection reagent (registered trademark: FuGene 6, manufactured by Roche Diagnostics). After the gene transfer, this was cultured in a DMEM (manufactured by Invitrogen) medium containing 40 μg/ml Zeocin (registered trademark, manufactured by Invitrogen) and a 10% fetal bovine serum at 37° C. for 2 weeks in the presence of 5% CO2, thereby obtaining Zeocin-resistant clones. A human CaSR stably expressing HEK 293 clone was obtained from these clones by selection using the responsiveness to extracellular Ca^2+ as an index.
3) Human CaSR Agonism Test
The HEK 293 cell stably expressing human CaSR was inoculated into a poly-D-lysine-coated black clear bottom 96 well plate (manufactured by BD Biosciences). Hanks' balanced salt solution (HBSS) (Ca^2+ (−), Mg^2+ (−), manufactured by Invitrogen) containing a 20 mM HEPES (2-[4-(2-hydroxyethyl)-1-piperazinyl]ethanesulfonic acid) buffer (pH 7.4), 2.5 mM of probenecid (manufactured by Sigma), and 0.1% of bovine serum albumin was prepared as a washing buffer. After the inoculation and the subsequent overnight culturing, the medium was discarded, the washing buffer supplemented with 1 mM CaCl2 and 10 μM Fluo-3 AM (trade name, manufactured by DOJINDO) was added thereto in 100 μl per well portions, and then the incubation was carried out at 37° C. for 1 hour in the presence of 5% CO2. This was washed twice with 200 μl of the washing buffer, replaced by 100 μl of the washing buffer supplemented with 0.5 mM CaCl2 and allowed to stand still for 10 minutes, and then the responsiveness to each compound to be evaluated was detected using a plate reader for fluorometry image analysis use (registered trademark: FLIPR, manufactured by Molecular Devices). In this connection, the compound to be evaluated was used by optionally diluting with the washing buffer supplemented with 0.5 mM Ca^2+.
The human CaSR agonistic activity strength of each compound to be evaluated was calculated by defining the solvent group as 0% and the 2 mM of Ca^2+ in the final concentration group as 100%, and the compound concentration showing 50% activity (EC50) was calculated from a concentration-activity curve by the method of least squares.

Data set [2] addresses T2, CYP2D6 (Homo sapiens, UniProt P10635). In words: Human CYP2D6 inhibition test. It is filed as biochemical. Also noted: purchased BD Gentest 456217. As to conditions: CYP2D6 7.5 pmol/mL; fluorescence substrate AMMC 1.5 μM; 37° C. 30 minutes. As for the experimental part:
Test 3. Human CYP2D6 Inhibition Test
Inhibitory activity evaluation for CYP2D6 was carried out by measuring it in accordance, roughly, with a reference (“Drug Metabolism and Disposition”, 2001, vol. 29, p. 1196-1200).
Final concentrations of the reagents in the enzyme reaction solution were respectively set to CYP2D6=7.5 pmol/mL (manufactured by BD Gentest, Catalog No. 456217), reduced type nicotinamide adenine dinucleotide phosphate (NADPH) regeneration system (0.0081 mM nicotinamide adenine dinucleotide phosphate (NADP+), 0.41 mM glucose-6-phosphate, 0.41 mM MgCl2, 0.4 units glucose-6-phosphate dehydrogenase), and a fluorescence substrate AMMC=1.5 μM, 100 mM potassium phosphate buffer (pH 7.4). Each compound was made into a 50% acetonitrile solution and added to the enzyme reaction solution (acetonitrile final concentration 2.5%). The enzyme reaction was carried out at 37° C. for 30 minutes, the reaction was stopped using a stopping liquid (0.1 M tris(hydroxymethyl)aminomethane (Tris-base):acetonitrile=20:80), and the fluorescence intensity was then measured. The concentration showing 50% inhibition (IC50) was calculated from the thus obtained fluorescence intensity, by defining the enzyme activity at a time of no compound addition as 100%.

Data set [3] deals with T2, CYP2D6. As to conditions: reported, Non-Patent Document 4; cited from earlier work.

Each structure is given as a SMILES string. Counter-ions that a name gives are not always drawn. Like-named read-outs stand apart in the source and are kept apart here. Some results are limits rather than exact numbers.

T2 sequence (P10635 whole entry): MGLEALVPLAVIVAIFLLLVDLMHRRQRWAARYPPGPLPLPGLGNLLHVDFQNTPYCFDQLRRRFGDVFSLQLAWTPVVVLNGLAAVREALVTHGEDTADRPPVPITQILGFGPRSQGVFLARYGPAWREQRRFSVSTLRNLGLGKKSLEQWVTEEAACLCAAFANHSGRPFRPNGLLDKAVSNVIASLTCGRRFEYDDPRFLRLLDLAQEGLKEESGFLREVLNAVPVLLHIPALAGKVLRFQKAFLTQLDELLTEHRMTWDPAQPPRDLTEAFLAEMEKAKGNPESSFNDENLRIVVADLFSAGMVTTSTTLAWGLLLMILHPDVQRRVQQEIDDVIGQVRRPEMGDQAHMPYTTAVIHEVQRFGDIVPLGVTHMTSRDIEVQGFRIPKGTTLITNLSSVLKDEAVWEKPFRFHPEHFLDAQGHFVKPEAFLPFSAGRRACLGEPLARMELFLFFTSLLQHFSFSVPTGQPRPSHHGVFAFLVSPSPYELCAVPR

The term IC50 denotes the concentration that gives 50% inhibition. Higher therefore signals weaker potency in that assay. As to `C[C@@H](NCC1CCN(c2c(F)cc(C(=O)O)cc2F)CC1c1ccccc1)c1cccc2ccccc12` (stereo partly drawn) [Example 52, 3,5-difluoro-4-[4-({[(1R)-1-(1-naphthyl)ethyl]amino}methyl)-3-phenylpiperidin-1-yl]benzoic acid hydrochloride], the inhibition in vivo at 3 mg/kg in data set [1] (normal male rats, single oral administration 3 mg/kg, 2 hours after administration) amounted to 26%. For the same molecule, the EC50 at human CaSR is 13 nM. Also, the IC50 against CYP2D6 [2] was at least 20000 nM.

As for `C[C@@H](NCCCc1cccc(C(F)(F)F)c1)c1cccc2ccccc12` [cinacalcet], the “activity to inhibit CYP2D6 (in words)” value on CYP2D6 [3] was “strong activity to inhibit CYP2D6”.

For `C[C@@H](NCC1CCN(C(=O)Oc2ccc(C(=O)O)cc2)CC1c1ccccc1)c1cccc2ccccc12` (stereo partly drawn) [Example 25, 4-({[4-({[(1R)-1-(1-naphthyl)ethyl]amino}methyl)-3-phenylpiperidin-1-yl]carbonyl}oxy)benzoic acid hydrochloride], the inhibition in vivo at 3 mg/kg in data set [1] (po, 2 h) was determined as 17%. Also, the EC50 on human CaSR turned out to be 13 nM. This molecule also returned an IC50 at CYP2D6 [2] of at least 20000 nM.
